Data taken from patent US20100311714A1, “1H-IMIDAZO[4,5-c]QUINOLINONE COMPOUNDS” (priority 2009, published 2010).
Where two headings read alike, the source gives them in different places.

What was measured:
PI3K beta = target: T1, PI3K beta (Homo sapiens, UniProt P42338); experiment: PI3K beta kinase assay (Kinase-Glo luminescence); format: biochemical
T1 construct: for the full-length p110-b subunit are generated and fused by overlapping PCR; His tag (C); made in house; host or cells: baculovirus BV949; Tn5 (Trichoplusia ni) or TiniPro insect cells
T1 sequence (P42338 with tags, fused parts or gaps limits assumed): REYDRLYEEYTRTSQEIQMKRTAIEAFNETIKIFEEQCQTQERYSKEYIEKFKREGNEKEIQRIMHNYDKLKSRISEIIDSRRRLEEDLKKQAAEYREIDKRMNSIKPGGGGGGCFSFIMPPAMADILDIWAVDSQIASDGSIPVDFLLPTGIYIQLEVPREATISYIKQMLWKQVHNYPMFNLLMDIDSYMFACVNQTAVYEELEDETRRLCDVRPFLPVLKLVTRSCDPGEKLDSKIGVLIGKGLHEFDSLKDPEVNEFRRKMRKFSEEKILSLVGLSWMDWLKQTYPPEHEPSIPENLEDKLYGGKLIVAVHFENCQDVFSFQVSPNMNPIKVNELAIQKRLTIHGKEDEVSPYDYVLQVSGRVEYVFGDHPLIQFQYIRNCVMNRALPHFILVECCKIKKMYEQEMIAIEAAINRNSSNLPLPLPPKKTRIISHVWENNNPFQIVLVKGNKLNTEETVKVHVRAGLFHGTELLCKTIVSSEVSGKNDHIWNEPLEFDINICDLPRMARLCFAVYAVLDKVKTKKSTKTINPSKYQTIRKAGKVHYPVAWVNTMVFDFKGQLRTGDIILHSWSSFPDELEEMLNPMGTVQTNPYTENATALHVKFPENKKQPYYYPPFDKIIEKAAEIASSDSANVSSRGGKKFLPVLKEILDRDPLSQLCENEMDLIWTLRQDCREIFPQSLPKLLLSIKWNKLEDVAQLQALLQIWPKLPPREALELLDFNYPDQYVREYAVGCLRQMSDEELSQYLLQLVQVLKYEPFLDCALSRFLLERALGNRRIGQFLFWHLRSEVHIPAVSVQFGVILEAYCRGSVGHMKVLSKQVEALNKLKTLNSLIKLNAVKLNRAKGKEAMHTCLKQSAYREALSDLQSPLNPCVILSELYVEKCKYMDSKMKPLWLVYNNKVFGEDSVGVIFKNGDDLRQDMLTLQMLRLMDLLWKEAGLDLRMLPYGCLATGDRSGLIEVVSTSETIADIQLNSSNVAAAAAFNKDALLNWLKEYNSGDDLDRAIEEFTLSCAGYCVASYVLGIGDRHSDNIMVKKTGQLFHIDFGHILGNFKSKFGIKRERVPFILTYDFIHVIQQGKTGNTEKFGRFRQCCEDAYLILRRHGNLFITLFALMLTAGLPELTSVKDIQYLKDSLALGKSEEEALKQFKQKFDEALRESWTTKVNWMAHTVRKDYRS
Procedure, shortened: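 PI3Kβ construct BV949 (p85 iSH2–p110β full-length, C-His), 25 nM, reacted with 1 μM ATP and 10 μg/mL phosphatidylinositol in Tris pH 7.5, MgCl2, NaCl, CHAPS, DTT buffer, 60 min at room temperature. Remaining ATP by Kinase-Glo luminescence; IC50 from 4-parameter logistic fit of 8 concentrations.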

PI3K alfa = target: T2, PI3K alfa (Homo sapiens, UniProt P42336); experiment: PI3K alpha kinase assay (Kinase-Glo luminescence); format: biochemical
T2 construct: His tag (C); made in house; host or cells: baculovirus BV1075; Tn5 (Trichoplusia ni) or TiniPro insect cells
T2 sequence (P42336 with tags, fused parts or gaps limits assumed): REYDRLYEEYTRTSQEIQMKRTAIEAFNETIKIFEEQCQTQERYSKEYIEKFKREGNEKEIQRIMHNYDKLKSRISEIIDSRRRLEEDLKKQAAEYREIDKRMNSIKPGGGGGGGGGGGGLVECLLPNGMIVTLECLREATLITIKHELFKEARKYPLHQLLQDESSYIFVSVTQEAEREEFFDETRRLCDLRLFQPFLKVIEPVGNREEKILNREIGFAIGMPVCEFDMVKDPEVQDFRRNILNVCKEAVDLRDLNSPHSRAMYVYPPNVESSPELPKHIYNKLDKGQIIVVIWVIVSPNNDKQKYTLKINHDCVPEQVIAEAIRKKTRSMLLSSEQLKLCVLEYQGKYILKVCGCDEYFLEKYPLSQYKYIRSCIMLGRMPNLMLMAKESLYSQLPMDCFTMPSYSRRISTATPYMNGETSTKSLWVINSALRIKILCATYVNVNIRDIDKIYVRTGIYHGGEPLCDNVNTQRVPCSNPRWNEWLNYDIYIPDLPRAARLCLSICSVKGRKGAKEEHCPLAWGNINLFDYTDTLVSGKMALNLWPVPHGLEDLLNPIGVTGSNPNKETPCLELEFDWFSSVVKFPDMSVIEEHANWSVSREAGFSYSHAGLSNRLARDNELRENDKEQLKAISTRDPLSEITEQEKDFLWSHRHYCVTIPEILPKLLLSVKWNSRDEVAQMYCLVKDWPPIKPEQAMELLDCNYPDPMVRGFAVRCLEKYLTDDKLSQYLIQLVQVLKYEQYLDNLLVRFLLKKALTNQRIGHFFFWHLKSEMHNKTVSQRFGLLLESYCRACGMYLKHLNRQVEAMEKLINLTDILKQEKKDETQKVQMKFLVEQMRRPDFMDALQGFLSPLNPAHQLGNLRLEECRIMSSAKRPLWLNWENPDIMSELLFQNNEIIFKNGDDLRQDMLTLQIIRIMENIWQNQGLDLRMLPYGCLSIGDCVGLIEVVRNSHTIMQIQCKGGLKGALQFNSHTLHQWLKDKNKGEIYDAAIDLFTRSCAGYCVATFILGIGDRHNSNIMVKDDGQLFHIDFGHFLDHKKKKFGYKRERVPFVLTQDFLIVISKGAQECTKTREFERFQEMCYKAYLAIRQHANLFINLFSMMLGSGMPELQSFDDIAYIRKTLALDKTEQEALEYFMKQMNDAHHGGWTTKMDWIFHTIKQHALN
Procedure, shortened: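 Kinase-Glo luminescence read of ATP remaining after PI3Kα (10 nM) phosphorylates 10 μg/mL bovine liver phosphatidylinositol with 1 μM ATP, pH 7.5 TRIS, 3 mM MgCl2, 0.05% CHAPS; 60 min at room temperature. IC50 from 4-parameter logistic fit over 8 concentrations.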

Row | Structure (SMILES) | IC50 (PI3K beta; read-out: EPK_PI3Kbeta/IC50) [nM] | IC50 (PI3K alfa; read-out: EPK_PI3Kalfa/IC50) [nM] | IC50 (PI3K beta; read-out: PI3Kbeta/IC50) [nM] | IC50 (PI3K alfa; read-out: PI3Kalfa/IC50) [nM]
1 | COc1cc(-c2ccc3ncc4c(c3c2)n(-c2ccc(N3CCC(OC)C3)nc2C)c(=O)n4C)cnc1CO (centres unmarked) [Example 28.3, 8-(6-Hydroxymethyl-5-methoxy-pyridin-3-yl)-1-[6-(3-methoxy-pyrrolidin-1-yl)-2-methyl-pyridin-3-yl]-3-methyl-1,3-dihydro-imidazo[4,5-c]quinolin-2-one] | 175 | 23 | – | –
2 | Cc1nc(N2CCC(O)C2)ccc1-n1c(=O)n(C)c2cnc3ccc(-c4cnc(N)c(C(F)(F)F)c4)cc3c21 (centres unmarked) [Example 27.3, 8-(6-Amino-5-trifluoromethyl-pyridin-3-yl)-1-[6-(3-hydroxy-pyrrolidin-1-yl)-2-methyl-pyridin-3-yl]-3-methyl-1,3-dihydro-imidazo[4,5-c]quinolin-2-one] | 36 | 5 | – | –
3 | COc1cc(-c2ccc3ncc4c(c3c2)n(-c2ccc(N3CC[C@H](O)C3)nc2C)c(=O)n4C)cnc1CO [Example 32.7, 8-(6-Hydroxymethyl-5-methoxy-pyridin-3-yl)-1-[6-((S)-3-hydroxy-pyrrolidin-1-yl)-2-methyl-pyridin-3-yl]-3-methyl-1,3-dihydro-imidazo[4,5-c]quinolin-2-one] | 198 | 26 | – | –
4 | CCNc1cc(-c2ccc3ncc4c(c3c2)n(-c2ccc(N(C)CCO)nc2C)c(=O)n4C)cnc1CO [Example 26.3, 8-(5-Ethylamino-6-hydroxymethyl-pyridin-3-yl)-1-{6-[(2-hydroxy-ethyl)-methyl-amino]-2-methyl-pyridin-3-yl}-3-methyl-1,3-dihydro-imidazo[4,5-c]quinolin-2-one] | 2010 | 84 | – | –
5 | COc1cc(-c2ccc3ncc4c(c3c2)n(-c2ccc(N3CC(F)(F)C3)nc2C)c(=O)n4C)cnc1CO [Example 24.4, 1-[6-(3,3-Difluoro-azetidin-1-yl)-2-methyl-pyridin-3-yl]-8-(6-hydroxymethyl-5-methoxy-pyridin-3-yl)-3-methyl-1,3-dihydro-imidazo[4,5-c]quinolin-2-one] | 2270 | 56 | – | –
6 | COc1ccc(-n2c(=O)n(C)c3cnc4ccc(-c5cnc(CO)c(OC)c5)cc4c32)c(OC)n1 [Example 8.14, 1-(2,6-Dimethoxy-pyridin-3-yl)-8-(6-hydroxymethyl-5-methoxy-pyridin-3-yl)-3-methyl-1,3-dihydro-imidazo[4,5-c]quinolin-2-one] | 1550 | 59 | – | –
7 | CCNc1cc(-c2ccc3ncc4c(c3c2)n(-c2ccc(N3CC(F)(F)C(F)(F)C3)nc2C)c(=O)n4C)cnc1CO [Example 35.2, 8-(5-Ethylamino-6-hydroxymethyl-pyridin-3-yl)-3-methyl-1-[2-methyl-6-(3,3,4,4-tetrafluoro-pyrrolidin-1-yl)-pyridin-3-yl]-1,3-dihydro-imidazo[4,5-c]quinolin-2-one] | 78.5 | 27 | – | –
8 | COCc1ncc(-c2ccc3ncc4c(c3c2)n(-c2ccc(F)nc2C)c(=O)n4C)cc1OC [Example 7.7, 1-(6-Fluoro-2-methyl-pyridin-3-yl)-8-(5-methoxy-6-methoxymethyl-pyridin-3-yl)-3-methyl-1,3-dihydro-imidazo[4,5-c]quinolin-2-one] | 359 | 127 | – | –
9 | CNc1ncc(-c2ccc3ncc4c(c3c2)n(-c2ccc(N3CC[C@@H](O)C3)nc2C)c(=O)n4C)cn1 [Example 34.1, 1-[6-((R)-3-Hydroxy-pyrrolidin-1-yl)-2-methyl-pyridin-3-yl]-3-methyl-8-(2-methylamino-pyrimidin-5-yl)-1,3-dihydro-imidazo[4,5-c]quinolin-2-one] | 1100 | 97 | – | –
10 | Cc1nc(F)ccc1-n1c(=O)n(C)c2cnc3ccc(-c4cncc(N5CCC5)c4)cc3c21 [Example 7.6, 8-(5-Azetidin-1-yl-pyridin-3-yl)-1-(6-fluoro-2-methyl-pyridin-3-yl)-3-methyl-1,3-dihydro-imidazo[4,5-c]quinolin-2-one] | 965 | 68 | – | –
11 | Cc1nc(N2CCC(O)C2)ccc1-n1c(=O)n(C)c2cnc3ccc(-c4cncc(C(C)(C)O)c4)cc3c21 (centres unmarked) [Example 27.5, 8-[5-(1-Hydroxy-1-methyl-ethyl)-pyridin-3-yl]-1-[6-(3-hydroxy-pyrrolidin-1-yl)-2-methyl-pyridin-3-yl]-3-methyl-1,3-dihydro-imidazo[4,5-c]quinolin-2-one] | 17 | 10 | – | –
12 | COc1cc(-c2ccc3ncc4c(c3c2)n(-c2ccc(N)nc2C)c(=O)n4C)cnc1CO [Example 30.1, 1-(6-Amino-2-methyl-pyridin-3-yl)-8-(6-hydroxymethyl-5-methoxy-pyridin-3-yl)-3-methyl-1,3-dihydro-imidazo[4,5-c]quinolin-2-one] | 426 | 54 | – | –
13 | COc1cc(-c2ccc3ncc4c(c3c2)n(-c2ccc(F)nc2C)c(=O)n4C)cnc1CO [Example 7.10, 1-(6-Fluoro-2-methyl-pyridin-3-yl)-8-(6-hydroxymethyl-5-methoxy-pyridin-3-yl)-3-methyl-1,3-dihydro-imidazo[4,5-c]quinolin-2-one] | 20 | 24 | – | –
14 | COCc1ncc(-c2ccc3ncc4c(c3c2)n(-c2cccnc2C)c(=O)n4C)cc1OC [Example 2.30, 8-(5-Methoxy-6-methoxymethyl-pyridin-3-yl)-3-methyl-1-(2-methyl-pyridin-3-yl)-1,3-dihydro-imidazo[4,5-c]quinolin-2-one] | 395 | 75 | – | –
15 | Cn1c(=O)n(-c2cccnc2F)c2c3cc(-c4cnc5[nH]ccc5c4)ccc3ncc21 [Example 6.3, 1-(2-Fluoro-pyridin-3-yl)-3-methyl-8-(1H-pyrrolo[2,3-b]pyridin-5-yl)-1,3-dihydro-imidazo[4,5-c]quinolin-2-one] | – | – | 112 | 41
16 | COc1ccc(-n2c(=O)n(C)c3cnc4ccc(-c5cnc(C(OC)OC)c(OC)c5)cc4c32)c(OC)n1 [Example 8.13, 8-(6-Dimethoxymethyl-5-methoxy-pyridin-3-yl)-1-(2,6-dimethoxy-pyridin-3-yl)-3-methyl-1,3-dihydro-imidazo[4,5-c]quinolin-2-one] | 265 | 247 | – | –
17 | Cc1nc(N2CC(O)C2)ccc1-n1c(=O)n(C)c2cnc3ccc(-c4cncc(C(C)(C)O)c4)cc3c21 [Example 29.1, 1-[6-(3-Hydroxy-azetidin-1-yl)-2-methyl-pyridin-3-yl]-8-[5-(1-hydroxy-1-methyl-ethyl)-pyridin-3-yl]-3-methyl-1,3-dihydro-imidazo[4,5-c]quinolin-2-one] | 60 | 19 | – | –
18 | COc1ccc(-n2c(=O)n(C)c3cnc4ccc(-c5cncc(N6CCC6)c5)cc4c32)c(OC)n1 [Example 8.11, 8-(5-Azetidin-1-yl-pyridin-3-yl)-1-(2,6-dimethoxy-pyridin-3-yl)-3-methyl-1,3-dihydro-imidazo[4,5-c]quinolin-2-one] | 730 | 365 | – | –
19 | CNc1ncc(-c2ccc3ncc4c(c3c2)n(-c2ccc(N3CCC(OC)C3)nc2C)c(=O)n4C)cn1 (centres unmarked) [Example 28.2, 1-[6-(3-Methoxy-pyrrolidin-1-yl)-2-methyl-pyridin-3-yl]-3-methyl-8-(2-methylamino-pyrimidin-5-yl)-1,3-dihydro-imidazo[4,5-c]quinolin-2-one] | 299 | 34 | – | –
20 | COc1cc(-c2ccc3ncc4c(c3c2)n(-c2ccc(N3CCCC3)nc2C)c(=O)n4C)cnc1CO [Example 25.4, 8-(6-Hydroxymethyl-5-methoxy-pyridin-3-yl)-3-methyl-1-(2-methyl-6-pyrrolidin-1-yl-pyridin-3-yl)-1,3-dihydro-imidazo[4,5-c]quinolin-2-one] | 269 | 27 | – | –
21 | CCNc1cc(-c2ccc3ncc4c(c3c2)n(-c2ccc(N3CCCC3)nc2C)c(=O)n4C)cnc1CO [Example 25.5, 8-(5-Ethylamino-6-hydroxymethyl-pyridin-3-yl)-3-methyl-1-(2-methyl-6-pyrrolidin-1-yl-pyridin-3-yl)-1,3-dihydro-imidazo[4,5-c]quinolin-2-one] | 12 | 28 | – | –
22 | CNc1ncc(-c2ccc3ncc4c(c3c2)n(-c2ccc(N3CC[C@H](O)C3)nc2C)c(=O)n4C)cc1Cl [Example 32.4, 8-(5-Chloro-6-methylamino-pyridin-3-yl)-1-[6-((S)-3-hydroxy-pyrrolidin-1-yl)-2-methyl-pyridin-3-yl]-3-methyl-1,3-dihydro-imidazo[4,5-c]quinolin-2-one] | 106 | 18 | – | –
23 | CCOc1ccc(-c2ccc3ncc4c(c3c2)n(-c2ccc(N3CCC(O)C3)nc2C)c(=O)n4C)cn1 (centres unmarked) [Example 27.4, 8-(6-Ethoxy-pyridin-3-yl)-1-[6-(3-hydroxy-pyrrolidin-1-yl)-2-methyl-pyridin-3-yl]-3-methyl-1,3-dihydro-imidazo[4,5-c]quinolin-2-one] | 904 | 39 | – | –
24 | Cc1ncccc1-n1c(=O)n(C)c2cnc3ccc(-c4cnc5[nH]ccc5c4)cc3c21 [Example 2.8, 3-Methyl-1-(2-methyl-pyridin-3-yl)-8-(1H-pyrrolo[2,3-b]pyridin-5-yl)-1,3-dihydro-imidazo[4,5-c]quinolin-2-one] | – | – | 173 | 26
25 | CNC(=O)c1ccc(-c2ccc3ncc4c(c3c2)n(-c2cccnc2C)c(=O)n4C)cc1 [Example 2.4, N-Methyl-4-[3-methyl-1-(2-methyl-pyridin-3-yl)-2-oxo-2,3-dihydro-1H-imidazo[4,5-c]quinolin-8-yl]-benzamide] | – | – | 682 | 29
